Measurements as given in ChEMBL document CHEMBL4813985, “Lead optimization generates selenium-containing miconazole CYP51 inhibitors with improved pharmacological profile for the treatment of fungal infections” (Eur J Med Chem, 2021).
≈ marks a conversion by molar mass, not a printed value.

Tests used:
Type in all cases: functional
Candida albicans [1] = assay: Antifungal activity against Candida albicans CPCC400616 measured after 24 hrs by broth microdilution assay
Candida albicans [2] = assay: Antifungal activity against Candida albicans ATCC SC5314 measured after 24 hrs by broth microdilution assay
[Candida] zeylanoides = Antifungal activity against Candida zeylanoides CMGCC2.3739 measured after 24 hrs by broth microdilution assay; conditions: Dujonia zeylanoides
Cryptococcus neoformans = assay: Antifungal activity against Cryptococcus neoformans CMGCC2.3161 measured after 72 hrs by broth microdilution assay
Pichia kudriavzevii = assay: Antifungal activity against Candida krusei AS2.1045 measured after 24 hrs by broth microdilution assay
Nakaseomyces glabratus = assay: Antifungal activity against Candida glabrata measured after 24 hrs by broth microdilution assay
Candida parapsilosis = assay: Antifungal activity against Candida parapsilosis ATCC 22019 measured after 24 hrs by broth microdilution assay; conditions: Lodderomyces parapsilosis
Aspergillus fumigatus = assay: Antifungal activity against Aspergillus fumigatus CMGCC3.7795 measured after 72 hrs by broth microdilution assay
Candida albicans [3] = assay: Antifungal activity against fluconazole-resistant Candida albicans CaR assessed as inhibition of microbial growth after 24 hrs by broth microdilution method
Candida albicans [4] = assay: Antifungal activity against fluconazole-resistant Candida albicans 17# assessed as inhibition of microbial growth after 24 hrs by broth microdilution method
Candida albicans [5] = assay: Antifungal activity against fluconazole-resistant Candida albicans 632 assessed as inhibition of microbial growth after 24 hrs by broth microdilution method
Candida albicans [6] = assay: Antifungal activity against fluconazole-resistant Candida albicans 901 assessed as inhibition of microbial growth after 24 hrs by broth microdilution method
Candida albicans [7] = assay: Antifungal activity against fluconazole-resistant Candida albicans 904 assessed as inhibition of microbial growth after 24 hrs by broth microdilution method
Candida albicans [8] = assay: Potency index, ratio of fluconazole MIC to test compound MIC for Candida albicans CPCC400616 measured after 24 hrs by broth microdilution assay

| SMILES | MIC (Candida albicans [1]) [mg/L] | MIC (Candida albicans [2]) [mg/L] | MIC ([Candida] zeylanoides) [mg/L] | MIC (Cryptococcus neoformans) [mg/L] | MIC (Pichia kudriavzevii) [mg/L] | MIC (Nakaseomyces glabratus) [mg/L] | MIC (Candida parapsilosis) [mg/L] | MIC (Aspergillus fumigatus) [mg/L] | MIC (Candida albicans [3]) [mg/L] | MIC (Candida albicans [4]) [mg/L] | MIC (Candida albicans [5]) [mg/L] | MIC (Candida albicans [6]) [mg/L] | MIC (Candida albicans [7]) [mg/L] | Ratio (Candida albicans [8]) |
| --- | --- | --- | --- | --- | --- | --- | --- | --- | --- | --- | --- | --- | --- | --- |
| Cc1cccc([Se]C(Cn2ccnc2)c2ccc(Cl)cc2Cl)c1 (configuration not stated) | 0.25 (≈ 0.609 µM) | 0.03 (≈ 0.0731 µM) | 0.25 (≈ 0.609 µM) | 0.25 (≈ 0.609 µM) | 0.06 (≈ 0.146 µM) | 1 (≈ 2.44 µM) | 0.25 (≈ 0.609 µM) | 4 (≈ 9.75 µM) | 1 | 1 | 1 | 1 | 1 | 8 |
| COc1ccccc1[Se]C(Cn1ccnc1)c1ccc(Cl)cc1Cl (configuration not stated) | 0.06 (≈ 0.141 µM) | 0.03 (≈ 0.0704 µM) | 0.25 (≈ 0.587 µM) | 0.5 (≈ 1.17 µM) | 0.13 (≈ 0.305 µM) | 0.5 (≈ 1.17 µM) | 0.13 (≈ 0.305 µM) | 8 (≈ 18.8 µM) | 2 | 2 | 2 | 1 | 8 | 8 |
| Cc1cccc([Se]C(Cn2ccnc2)c2ccc(F)cc2F)c1 (configuration not stated) | 0.25 (≈ 0.663 µM) | 0.03 (≈ 0.0795 µM) | 0.5 (≈ 1.33 µM) | 0.25 (≈ 0.663 µM) | 0.06 (≈ 0.159 µM) | 1 (≈ 2.65 µM) | 0.25 (≈ 0.663 µM) | 8 (≈ 21.2 µM) | 4 | 8 | 0.5 | 4 | 1 | 8 |
| COc1ccccc1[Se]C(Cn1ccnc1)c1ccc(F)cc1F (configuration not stated) | 1 (≈ 2.54 µM) | 0.02 (≈ 0.0509 µM) | 0.13 (≈ 0.331 µM) | 1 (≈ 2.54 µM) | 0.5 (≈ 1.27 µM) | 0.25 (≈ 0.636 µM) | 0.13 (≈ 0.331 µM) | 8 (≈ 20.3 µM) | 8 | 8 | 16 | 4 | 8 | 8 |
| COc1cccc([Se]C(Cn2ccnc2)c2ccc(Cl)cc2Cl)c1 (configuration not stated) | 0.25 (≈ 0.587 µM) | 0.03 (≈ 0.0704 µM) | 0.5 (≈ 1.17 µM) | 0.25 (≈ 0.587 µM) | 0.06 (≈ 0.141 µM) | 0.5 (≈ 1.17 µM) | 0.5 (≈ 1.17 µM) | 8 (≈ 18.8 µM) | 8 | 2 | 16 | 16 | 4 | 8 |
| Fc1ccc(C(Cn2cncn2)[Se]Cc2ccccc2Cl)c(F)c1 (configuration not stated) | 0.03 (≈ 0.0727 µM) | 0.13 (≈ 0.315 µM) | 1 (≈ 2.42 µM) | 2 (≈ 4.85 µM) | 2 (≈ 4.85 µM) | 2 (≈ 4.85 µM) | 0.5 (≈ 1.21 µM) | 8 (≈ 19.4 µM) | 32 | 4 | 8 | 4 | 2 | – |
| Cc1ccc(C[Se]C(Cn2cncn2)c2ccc(F)cc2F)cc1 (configuration not stated) | 2 (≈ 5.1 µM) | 2 (≈ 5.1 µM) | 32 (≈ 81.6 µM) | 4 (≈ 10.2 µM) | 128 (≈ 326 µM) | 2 (≈ 5.1 µM) | 128 (≈ 326 µM) | 8 (≈ 20.4 µM) | > 128 | 64 | > 128 | > 128 | > 128 | – |
| Fc1cccc([Se]C(Cn2ccnc2)c2ccc(F)cc2F)c1 (configuration not stated) | 0.5 (≈ 1.31 µM) | 0.03 (≈ 0.0787 µM) | 0.5 (≈ 1.31 µM) | 0.5 (≈ 1.31 µM) | 0.13 (≈ 0.341 µM) | 1 (≈ 2.62 µM) | 0.25 (≈ 0.656 µM) | 8 (≈ 21 µM) | 4 | 4 | 1 | 2 | 2 | 8 |
| COc1ccc(C[Se]C(Cn2cncn2)c2ccc(Cl)cc2Cl)cc1 (configuration not stated) | 16 (≈ 36.3 µM) | 1 (≈ 2.27 µM) | 32 (≈ 72.5 µM) | 16 (≈ 36.3 µM) | 64 (≈ 145 µM) | 4 (≈ 9.07 µM) | 32 (≈ 72.5 µM) | 4 (≈ 9.07 µM) | 128 | 32 | > 128 | 128 | 128 | – |
| Clc1ccc(C(Cn2cncn2)[Se]Cc2ccccc2)c(Cl)c1 (configuration not stated) | 0.13 (≈ 0.316 µM) | 0.13 (≈ 0.316 µM) | 64 (≈ 156 µM) | 2 (≈ 4.86 µM) | 128 (≈ 311 µM) | 4 (≈ 9.73 µM) | 32 (≈ 77.8 µM) | 16 (≈ 38.9 µM) | > 128 | 64 | > 128 | > 128 | > 128 | – |
| Fc1ccc([Se]C(Cn2ccnc2)c2ccc(Cl)cc2Cl)cc1 (configuration not stated) | 0.25 (≈ 0.604 µM) | 0.03 (≈ 0.0724 µM) | 0.25 (≈ 0.604 µM) | 0.03 (≈ 0.0724 µM) | 0.02 (≈ 0.0483 µM) | 0.5 (≈ 1.21 µM) | 0.25 (≈ 0.604 µM) | 8 (≈ 19.3 µM) | 8 | 2 | 1 | 1 | 1 | 8 |
| Fc1ccc(C(Cn2cncn2)[Se]Cc2ccc(Cl)cc2Cl)c(F)c1 (configuration not stated) | 0.13 (≈ 0.291 µM) | 0.06 (≈ 0.134 µM) | 64 (≈ 143 µM) | 4 (≈ 8.95 µM) | 128 (≈ 286 µM) | 2 (≈ 4.47 µM) | > 128 | 16 (≈ 35.8 µM) | > 128 | 64 | > 128 | > 128 | > 128 | – |
| Cc1ccc(C)c([Se]C(Cn2ccnc2)c2ccc(F)cc2F)c1 (configuration not stated) | 0.25 (≈ 0.639 µM) | 0.06 (≈ 0.153 µM) | 0.5 (≈ 1.28 µM) | 0.25 (≈ 0.639 µM) | 0.13 (≈ 0.332 µM) | 0.5 (≈ 1.28 µM) | 0.13 (≈ 0.332 µM) | 8 (≈ 20.4 µM) | 8 | 4 | 2 | 4 | 8 | 8 |
| COc1cccc([Se]C(Cn2ccnc2)c2ccc(F)cc2F)c1 (configuration not stated) | 0.5 (≈ 1.27 µM) | 0.13 (≈ 0.331 µM) | 1 (≈ 2.54 µM) | 0.5 (≈ 1.27 µM) | 0.13 (≈ 0.331 µM) | 0.5 (≈ 1.27 µM) | 0.25 (≈ 0.636 µM) | 4 (≈ 10.2 µM) | 2 | 4 | 1 | 4 | 8 | 8 |
| Fc1ccc(C(Cn2cncn2)[Se]Cc2ccc(Cl)cc2)c(F)c1 (configuration not stated) | 0.13 (≈ 0.315 µM) | 0.13 (≈ 0.315 µM) | 4 (≈ 9.69 µM) | 4 (≈ 9.69 µM) | 128 (≈ 310 µM) | 0.5 (≈ 1.21 µM) | 64 (≈ 155 µM) | 8 (≈ 19.4 µM) | 128 | 16 | > 128 | 4 | 8 | – |
| Clc1ccc(C(Cn2ccnc2)[Se]c2ccccc2)c(Cl)c1 (configuration not stated) | 0.25 (≈ 0.631 µM) | 0.13 (≈ 0.328 µM) | 0.25 (≈ 0.631 µM) | 0.13 (≈ 0.328 µM) | 0.13 (≈ 0.328 µM) | 1 (≈ 2.52 µM) | 0.25 (≈ 0.631 µM) | 8 (≈ 20.2 µM) | 1 | 1 | 1 | 2 | 2 | 8 |
| Clc1ccc(C[Se]C(Cn2cncn2)c2ccc(Cl)cc2Cl)c(Cl)c1 (configuration not stated) | 0.25 (≈ 0.521 µM) | 0.25 (≈ 0.521 µM) | 128 (≈ 267 µM) | 64 (≈ 133 µM) | 128 (≈ 267 µM) | 0.5 (≈ 1.04 µM) | 64 (≈ 133 µM) | 16 (≈ 33.3 µM) | > 128 | > 128 | > 128 | > 128 | > 128 | – |
| Fc1ccc(C[Se]C(Cn2cncn2)c2ccc(F)cc2F)cc1 (configuration not stated) | 1 (≈ 2.52 µM) | 0.25 (≈ 0.631 µM) | 4 (≈ 10.1 µM) | 0.5 (≈ 1.26 µM) | 8 (≈ 20.2 µM) | 2 (≈ 5.05 µM) | 32 (≈ 80.8 µM) | 8 (≈ 20.2 µM) | 128 | 32 | > 128 | > 128 | 64 | – |
| Cc1ccc(C[Se]C(Cn2cncn2)c2ccc(Cl)cc2Cl)cc1 (configuration not stated) | 16 (≈ 37.6 µM) | 2 (≈ 4.7 µM) | 128 (≈ 301 µM) | 32 (≈ 75.3 µM) | 64 (≈ 151 µM) | 2 (≈ 4.7 µM) | 64 (≈ 151 µM) | 16 (≈ 37.6 µM) | > 128 | > 128 | > 128 | > 128 | > 128 | – |
| Clc1ccc(C(Cn2cncn2)[Se]Cc2ccccc2Cl)c(Cl)c1 (configuration not stated) | 0.03 (≈ 0.0673 µM) | 0.13 (≈ 0.292 µM) | 16 (≈ 35.9 µM) | 2 (≈ 4.49 µM) | 0.06 (≈ 0.135 µM) | 4 (≈ 8.98 µM) | 8 (≈ 18 µM) | 16 (≈ 35.9 µM) | > 128 | 8 | > 128 | > 128 | 32 | – |
| COc1ccc(C[Se]C(Cn2cncn2)c2ccc(F)cc2F)cc1 (configuration not stated) | 1 (≈ 2.45 µM) | 2 (≈ 4.9 µM) | 32 (≈ 78.4 µM) | 32 (≈ 78.4 µM) | 32 (≈ 78.4 µM) | 2 (≈ 4.9 µM) | > 128 | 4 (≈ 9.8 µM) | 128 | 64 | > 128 | > 128 | > 128 | – |
| Fc1ccc(C[Se]C(Cn2cncn2)c2ccc(Cl)cc2Cl)cc1 (configuration not stated) | 2 (≈ 4.66 µM) | 0.13 (≈ 0.303 µM) | 64 (≈ 149 µM) | 8 (≈ 18.6 µM) | 128 (≈ 298 µM) | 4 (≈ 9.32 µM) | 64 (≈ 149 µM) | 16 (≈ 37.3 µM) | > 128 | > 128 | > 128 | > 128 | > 128 | – |
| Clc1ccc(C[Se]C(Cn2cncn2)c2ccc(Cl)cc2Cl)cc1 (configuration not stated) | 16 (≈ 35.9 µM) | 2 (≈ 4.49 µM) | 128 (≈ 287 µM) | 16 (≈ 35.9 µM) | 128 (≈ 287 µM) | 2 (≈ 4.49 µM) | 64 (≈ 144 µM) | 16 (≈ 35.9 µM) | > 128 | > 128 | > 128 | > 128 | > 128 | – |
| Fc1ccc(C(Cn2cncn2)[Se]Cc2ccccc2)c(F)c1 (configuration not stated) | 0.5 (≈ 1.32 µM) | 0.06 (≈ 0.159 µM) | 8 (≈ 21.1 µM) | 4 (≈ 10.6 µM) | 4 (≈ 10.6 µM) | 2 (≈ 5.29 µM) | 16 (≈ 42.3 µM) | 8 (≈ 21.1 µM) | 128 | 32 | > 128 | 16 | 16 | – |
